Assay results published in PubChem BioAssay (NCI).
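Protocol summary: plate cells (96-well), add compound at 5 concentrations, incubate 48 h, interpolate endpoints linearly. The concentration for full growth arrest is given as TGI.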

How the values were obtained:
Experiment in all cases: NCI-60 cell line screen, 48 h
MDA-MB-435 = test system: MDA-MB-435
MOLT-4 leukemia = test system: MOLT-4 leukemia
NCI-H23 lung = test system: NCI-H23 lung
OVCAR-5 ovarian = test system: OVCAR-5 ovarian
COLO 205 colon = test system: COLO 205 colon
ACHN renal = test system: ACHN renal
HOP-62 NSCLC = test system: HOP-62 NSCLC
SNB-75 CNS = test system: SNB-75 CNS
HL-60(TB) leukemia = test system: HL-60(TB) leukemia
OVCAR-3 ovarian = test system: OVCAR-3 ovarian
A549 NSCLC = test system: A549 NSCLC
KM12 colon = test system: KM12 colon
SK-OV-3 ovarian = test system: SK-OV-3 ovarian
LOX IMVI melanoma = test system: LOX IMVI melanoma
DU-145 prostate = test system: DU-145 prostate
NCI-H460 lung = test system: NCI-H460 lung
CAKI-1 renal = test system: CAKI-1 renal
OVCAR-8 ovarian = test system: OVCAR-8 ovarian
UACC-62 melanoma = test system: UACC-62 melanoma
SF-268 CNS = test system: SF-268 CNS
SW-620 colon = test system: SW-620 colon
786-0 renal = test system: 786-0 renal
NCI-H522 lung = test system: NCI-H522 lung
TK-10 renal = test system: TK-10 renal
K-562 leukemia = test system: K-562 leukemia
MDA-MB-231 breast = test system: MDA-MB-231 breast
SK-MEL-2 melanoma = test system: SK-MEL-2 melanoma
MCF7 breast = test system: MCF7 breast
SR leukemia = test system: SR leukemia
A498 renal = test system: A498 renal
MDA-N = test system: MDA-N
M14 melanoma = test system: M14 melanoma
NCI/ADR-RES ovarian = test system: NCI/ADR-RES ovarian
UACC-257 melanoma = test system: UACC-257 melanoma
T-47D breast = test system: T-47D breast
SNB-19 CNS = test system: SNB-19 CNS
SK-MEL-5 melanoma = test system: SK-MEL-5 melanoma
U251 CNS = test system: U251 CNS
EKVX NSCLC = test system: EKVX NSCLC
HCC-2998 colon = test system: HCC-2998 colon
SN12C renal = test system: SN12C renal
RPMI-8226 leukemia = test system: RPMI-8226 leukemia
NCI-H226 lung = test system: NCI-H226 lung
IGROV1 ovarian = test system: IGROV1 ovarian
HOP-92 NSCLC = test system: HOP-92 NSCLC
SF-539 CNS = test system: SF-539 CNS
HS 578T breast = test system: HS 578T breast
PC-3 prostate = test system: PC-3 prostate
HCT-15 colon = test system: HCT-15 colon
HCT-116 colon = test system: HCT-116 colon
CCRF-CEM leukemia = test system: CCRF-CEM leukemia
OVCAR-4 ovarian = test system: OVCAR-4 ovarian
RXF 393 renal = test system: RXF 393 renal
UO-31 renal = test system: UO-31 renal
SF-295 CNS = test system: SF-295 CNS
SK-MEL-28 melanoma = test system: SK-MEL-28 melanoma
BT-549 breast = test system: BT-549 breast
HT29 colon = test system: HT29 colon

## O=C(/C=C/c1ccccc1)N1CCCCC1
MDA-MB-435
  TGI: > 100 µM
MOLT-4 leukemia
  TGI: > 100 µM
NCI-H23 lung
  TGI: > 100 µM
OVCAR-5 ovarian
  TGI: > 100 µM
COLO 205 colon
  TGI: > 100 µM
ACHN renal
  TGI: > 100 µM
HOP-62 NSCLC
  TGI: > 100 µM
SNB-75 CNS
  TGI: 89.2 µM
HL-60(TB) leukemia
  TGI: > 100 µM
OVCAR-3 ovarian
  TGI: > 100 µM
A549 NSCLC
  TGI: > 100 µM
KM12 colon
  TGI: > 100 µM
SK-OV-3 ovarian
  TGI: > 100 µM
LOX IMVI melanoma
  TGI: > 100 µM
DU-145 prostate
  TGI: > 100 µM
NCI-H460 lung
  TGI: > 100 µM
CAKI-1 renal
  TGI: > 100 µM
OVCAR-8 ovarian
  TGI: > 100 µM
UACC-62 melanoma
  TGI: > 100 µM
SF-268 CNS
  TGI: > 100 µM
SW-620 colon
  TGI: > 100 µM
786-0 renal
  TGI: > 100 µM
NCI-H522 lung
  TGI: > 100 µM
TK-10 renal
  TGI: > 100 µM
K-562 leukemia
  TGI: > 100 µM
MDA-MB-231 breast
  TGI: > 100 µM
SK-MEL-2 melanoma
  TGI: > 100 µM
MCF7 breast
  TGI: > 100 µM
SR leukemia
  TGI: > 100 µM
A498 renal
  TGI: > 100 µM
MDA-N
  TGI: > 100 µM
M14 melanoma
  TGI: > 100 µM
NCI/ADR-RES ovarian
  TGI: > 100 µM
UACC-257 melanoma
  TGI: > 100 µM
T-47D breast
  TGI: > 100 µM
SNB-19 CNS
  TGI: > 100 µM
SK-MEL-5 melanoma
  TGI: > 100 µM
U251 CNS
  TGI: > 100 µM
EKVX NSCLC
  TGI: > 100 µM
HCC-2998 colon
  TGI: > 100 µM
SN12C renal
  TGI: > 100 µM
RPMI-8226 leukemia
  TGI: > 100 µM
NCI-H226 lung
  TGI: > 100 µM
IGROV1 ovarian
  TGI: > 100 µM
HOP-92 NSCLC
  TGI: > 100 µM
SF-539 CNS
  TGI: > 100 µM
HS 578T breast
  TGI: > 100 µM
PC-3 prostate
  TGI: > 100 µM
HCT-15 colon
  TGI: > 100 µM
HCT-116 colon
  TGI: > 100 µM
CCRF-CEM leukemia
  TGI: > 100 µM
OVCAR-4 ovarian
  TGI: > 100 µM
RXF 393 renal
  TGI: > 100 µM
UO-31 renal
  TGI: > 100 µM
SF-295 CNS
  TGI: > 100 µM
SK-MEL-28 melanoma
  TGI: > 100 µM
BT-549 breast
  TGI: > 100 µM
HT29 colon
  TGI: > 100 µM

## SC1CCCN(Cc2ccccc2)C1 (stereo not given)
MDA-MB-435
  TGI: > 100 µM
MOLT-4 leukemia
  TGI: 78.2 µM
NCI-H23 lung
  TGI: 81.5 µM
OVCAR-5 ovarian
  TGI: > 100 µM
COLO 205 colon
  TGI: 33.7 µM
ACHN renal
  TGI: > 100 µM
HOP-62 NSCLC
  TGI: > 100 µM
SNB-75 CNS
  TGI: > 100 µM
HL-60(TB) leukemia
  TGI: > 100 µM
OVCAR-3 ovarian
  TGI: > 100 µM
A549 NSCLC
  TGI: > 100 µM
KM12 colon
  TGI: > 100 µM
SK-OV-3 ovarian
  TGI: > 100 µM
LOX IMVI melanoma
  TGI: 34.7 µM
DU-145 prostate
  TGI: > 100 µM
NCI-H460 lung
  TGI: 64.7 µM
CAKI-1 renal
  TGI: > 100 µM
OVCAR-8 ovarian
  TGI: > 100 µM
UACC-62 melanoma
  TGI: > 100 µM
SF-268 CNS
  TGI: > 100 µM
SW-620 colon
  TGI: 72.6 µM
786-0 renal
  TGI: > 100 µM
NCI-H522 lung
  TGI: > 100 µM
TK-10 renal
  TGI: > 100 µM
K-562 leukemia
  TGI: 60.6 µM
MDA-MB-231 breast
  TGI: > 100 µM
SK-MEL-2 melanoma
  TGI: > 100 µM
MCF7 breast
  TGI: 39.4 µM
SR leukemia
  TGI: 71.5 µM
A498 renal
  TGI: > 100 µM
MDA-N
  TGI: > 100 µM
M14 melanoma
  TGI: 36.9 µM
NCI/ADR-RES ovarian
  TGI: > 100 µM
UACC-257 melanoma
  TGI: > 100 µM
T-47D breast
  TGI: 94.1 µM
SNB-19 CNS
  TGI: > 100 µM
SK-MEL-5 melanoma
  TGI: 35.4 µM
U251 CNS
  TGI: > 100 µM
EKVX NSCLC
  TGI: > 100 µM
HCC-2998 colon
  TGI: 31.4 µM
SN12C renal
  TGI: > 100 µM
RPMI-8226 leukemia
  TGI: 46.6 µM
NCI-H226 lung
  TGI: > 100 µM
IGROV1 ovarian
  TGI: > 100 µM
HOP-92 NSCLC
  TGI: > 100 µM
SF-539 CNS
  TGI: > 100 µM
HS 578T breast
  TGI: > 100 µM
PC-3 prostate
  TGI: > 100 µM
HCT-15 colon
  TGI: > 100 µM
HCT-116 colon
  TGI: > 100 µM
OVCAR-4 ovarian
  TGI: > 100 µM
RXF 393 renal
  TGI: > 100 µM
UO-31 renal
  TGI: > 100 µM
SF-295 CNS
  TGI: > 100 µM
SK-MEL-28 melanoma
  TGI: > 100 µM
BT-549 breast
  TGI: > 100 µM
HT29 colon
  TGI: 45.8 µM
